Measured values: patent US4091006A, “Esters of 3-hydroxyindone compounds” (priority 1975, dated 1978)

These compounds were tested on Perennial rye grass, crabgrass, red root pigweed, mustard (assay: Preliminary Herbicide Seed Germination Test). Conditions: rating/maximum 15: 100 ppm only, crabgrass omitted, each rated 1 (no injury) to 5 (no seedlings emerged).
`CCc1cccc(C)c1C1=C(OC(=O)C(C)(C)C)c2ccccc2C1=O` [2-(2'-Ethyl-6'-methylphenyl)-3-(pivaloyloxy)indone] was tested, and the “Herbicide (total preemergence rating)” value was 14/15.

Same assay, conditions: rating/maximum 20: 100 ppm only, four species, each rated 1 (no injury) to 5 (no seedlings emerged)
In the case of `Cc1cc(C)c(C2=C(OC(=O)N(C)C3CCCCC3)c3ccccc3C2=O)c(C)c1` [2-(2',4',6'-Trimethylphenyl)-3-(N-cyclohexyl-N-methylcarbamoyloxy)indone], the “Herbicide (total preemergence rating)” value is reported as 16/20. With `CCCCC(CC)C(=O)OC1=C(c2ccccc2F)C(=O)c2ccccc21` (stereo not drawn) [3-(2-Ethylhexanoyloxy)-2-(2'-fluorophenyl)indone] the “Herbicide (total preemergence rating)” value was 4/20. `Cc1cc(C)c(C2=C(OC(=O)OC3=C(c4c(C)cc(C)cc4C)C(=O)c4ccccc43)c3ccccc3C2=O)c(C)c1` [Bis[2-(2',4',6'-Trimethylphenyl)Indon-3-yl]Carbonate] was tested, and the “Herbicide (total preemergence rating)” value was 15/20. For `COc1cccc(OC)c1C(=O)OC1=C(c2c(C)cc(C)cc2C)C(=O)c2ccccc21` [3-(2,6-Dimethoxybenzoyloxy)-2-(2',4',6'-trimethylphenyl)indone], the “Herbicide (total preemergence rating)” value was 4/20. In the case of `CCCCCCCCCCCCCCCC(=O)OC1=C(c2ccc(C(C)C)cc2)C(=O)c2ccccc21` [2-(4'-isopropylphenyl)-3-(palmitoyloxy)indone], the “Herbicide (total preemergence rating)” value is reported as 4/20. “2-(2'-Methoxyphenyl)-3-(neodecanoyloxy)indone” was tested, and the “Herbicide (total preemergence rating)” value was 4/20. For `CCCCC(CC)C(=O)OC1=C(c2ccccc2)C(=O)c2ccccc21` (stereo not drawn) [3-(2-Ethylhexanoyloxy)-2-phenylindone], the “Herbicide (total preemergence rating)” value was 4/20. With `Cc1cc(C)c(C2=C(OC(=O)Cc3ccccc3)c3ccccc3C2=O)c(C)c1` [2-(2',4',6'-Trimethylphenyl)-3-(phenylacetoxy)indone] the “Herbicide (total preemergence rating)” value was 19/20. `CNC(=O)N(C)C(=O)OC1=C(c2c(C)cc(C)cc2C)C(=O)c2ccccc21` [2-(2',4',6'-Trimethylphenyl)-3-(2,4-dimethylallophanoyloxy)indone] was tested, and the “Herbicide (total preemergence rating)” value was 16/20. For `CCCC(C)C(=O)OC1=C(c2ccccc2Cl)C(=O)c2ccccc21` (stereo not drawn) [2-(2'-Chlorophenyl)-3-(2-methylpentanoyloxy)indone], the “Herbicide (total preemergence rating)” value was 4/20. In the case of `CCC(CC)C(=O)OC1=C(c2cc(C)ccc2C)C(=O)c2ccccc21` [2-(2',5'-Dimethylphenyl)-3-(2-ethylbutanoyloxy)indone], the “Herbicide (total preemergence rating)” value is reported as 4/20. `CCCC(C)C(=O)OC1=C(c2ccc(C)cc2C)C(=O)c2ccccc21` (stereo not drawn) [2-(2',4'-Dimethylphenyl)-3-(2-methylpentanoyloxy)indone] was tested, and the “Herbicide (total preemergence rating)” value was 14/20. For `Cc1cc(C)c(C2=C(OC(=O)c3cccs3)c3ccccc3C2=O)c(C)c1` [2-(2',4',6'-Trimethylphenyl)-3-(2-thenoyloxy)indone], the “Herbicide (total preemergence rating)” value was 18/20.

Same assay, conditions: rating/maximum 30: 100 and 1000 ppm, crabgrass omitted, each rated 1 (no injury) to 5 (no seedlings emerged)
`O=C(OC1=C(c2c(Cl)cccc2Cl)C(=O)c2ccccc21)c1cccc([N+](=O)[O-])c1` [3-(3-Nitrobenzoyloxy)-2-(2',6'-dichlorophenyl)indone] was tested, and the “Herbicide (total preemergence rating)” value was 26/30.

Same assay, conditions: rating/maximum 40: 100 and 1000 ppm, four species, each rated 1 (no injury) to 5 (no seedlings emerged), 10-12 days
With `Cc1cc(C(C)(C)C)cc(C)c1C1=C(OC(=O)C(C)(C)C)c2ccccc2C1=O` [2-(2',6'-Dimethyl-4'-t-butylphenyl)-3-(pivaloyloxy)indone] the “Herbicide (total preemergence rating)” value was 9/40. For `O=C1C(c2c(Cl)cccc2Cl)=C(OC(=O)c2c(Cl)ccc(Cl)c2Cl)c2ccccc21` [3-(2,3,6-Trichlorobenzoyloxy)-2-(2',6'-dichlorophenyl)indone], the “Herbicide (total preemergence rating)” value was 20/40. In the case of `O=C(OC1=C(c2c(Cl)cccc2Cl)C(=O)c2ccccc21)c1ccccc1` [3-(Benzoyloxy)-2-(2',6'-dichlorophenyl)indone], the “Herbicide (total preemergence rating)” value is reported as 32/40. With `O=C(OC1=C(c2c(Cl)cccc2Cl)C(=O)c2ccccc21)c1ccc(Cl)cc1Cl` [3-(2,4-Dichlorobenzoyloxy)-2-(2',6'-dichlorophenyl)indone] the “Herbicide (total preemergence rating)” value was 28/40. `Cc1cc(C)c(C2=C(OC(=O)c3c(Cl)cccc3Cl)c3ccccc3C2=O)c(C)c1` [3-(2,6-Dichlorobenzoyloxy)-2-(2',4',6'-trimethylphenyl)indone] was tested, and the “Herbicide (total preemergence rating)” value was 8/40.

Each compound was assayed on adults and nymphal stages of the two-spotted mite (assay: Mite Foliage Spray Test). Conditions: 4 days.
Assay type: in vivo, Tetranychus urticae (Koch)
Set-up: key: 1: no mortality; 3: an approximately 50% mortality; 5: 100% mortality
Source text: (§1) The test procedures were as follows:
(§2) Compositions were rated on the basis of percent kill with a rating of 1 indicating no mortality; 3 signifying an approximately 50% mortality and 5 indicating 100% mortality at the indicated dosage.
`Cc1cc(C)c(C2=C(OC(=O)N(C)C3CCCCC3)c3ccccc3C2=O)c(C)c1` [2-(2',4',6'-Trimethylphenyl)-3-(N-cyclohexyl-N-methylcarbamoyloxy)indone] was tested, and the “Mite Adult rating” value was 5 (100% mortality). `Cc1cc(C(C)(C)C)cc(C)c1C1=C(OC(=O)C(C)(C)C)c2ccccc2C1=O` [2-(2',6'-Dimethyl-4'-t-butylphenyl)-3-(pivaloyloxy)indone] was tested, and the “Mite Adult rating” value was 1. `CCCCC(CC)C(=O)OC1=C(c2ccccc2F)C(=O)c2ccccc21` (stereo not drawn) [3-(2-Ethylhexanoyloxy)-2-(2'-fluorophenyl)indone] was tested, and the “Mite Adult rating” value was 3 (an approximately 50% mortality). With `Cc1cc(C)c(C2=C(OC(=O)OC3=C(c4c(C)cc(C)cc4C)C(=O)c4ccccc43)c3ccccc3C2=O)c(C)c1` [Bis[2-(2',4',6'-Trimethylphenyl)Indon-3-yl]Carbonate] the “Mite Adult rating” value was 5 (100% mortality). With `O=C1C(c2c(Cl)cccc2Cl)=C(OC(=O)c2c(Cl)ccc(Cl)c2Cl)c2ccccc21` [3-(2,3,6-Trichlorobenzoyloxy)-2-(2',6'-dichlorophenyl)indone] the “Mite Adult rating” value was 5 (100% mortality). `COc1cccc(OC)c1C(=O)OC1=C(c2c(C)cc(C)cc2C)C(=O)c2ccccc21` [3-(2,6-Dimethoxybenzoyloxy)-2-(2',4',6'-trimethylphenyl)indone] was tested, and the “Mite Adult rating” value was 1. For `CCc1cccc(C)c1C1=C(OC(=O)C(C)(C)C)c2ccccc2C1=O` [2-(2'-Ethyl-6'-methylphenyl)-3-(pivaloyloxy)indone], the “Mite Adult rating” value was 5 (100% mortality). With `CCCCCCCCCCCCCCCC(=O)OC1=C(c2ccc(C(C)C)cc2)C(=O)c2ccccc21` [2-(4'-isopropylphenyl)-3-(palmitoyloxy)indone] the “Mite Adult rating” value was 1. “2-(2'-Methoxyphenyl)-3-(neodecanoyloxy)indone” was tested, and the “Mite Adult rating” value was 1. With `O=C(OC1=C(c2c(Cl)cccc2Cl)C(=O)c2ccccc21)c1ccccc1` [3-(Benzoyloxy)-2-(2',6'-dichlorophenyl)indone] the “Mite Adult rating” value was 5 (100% mortality). With `CCCCC(CC)C(=O)OC1=C(c2ccccc2)C(=O)c2ccccc21` (stereo not drawn) [3-(2-Ethylhexanoyloxy)-2-phenylindone] the “Mite Adult rating” value was 1. With `Cc1cc(C)c(C2=C(OC(=O)Cc3ccccc3)c3ccccc3C2=O)c(C)c1` [2-(2',4',6'-Trimethylphenyl)-3-(phenylacetoxy)indone] the “Mite Adult rating” value was 5 (100% mortality). In the case of `CNC(=O)N(C)C(=O)OC1=C(c2c(C)cc(C)cc2C)C(=O)c2ccccc21` [2-(2',4',6'-Trimethylphenyl)-3-(2,4-dimethylallophanoyloxy)indone], the “Mite Adult rating” value is reported as 1. For `O=C(OC1=C(c2c(Cl)cccc2Cl)C(=O)c2ccccc21)c1ccc(Cl)cc1Cl` [3-(2,4-Dichlorobenzoyloxy)-2-(2',6'-dichlorophenyl)indone], the “Mite Adult rating” value was 5 (100% mortality). In the case of `CCCC(C)C(=O)OC1=C(c2ccccc2Cl)C(=O)c2ccccc21` (stereo not drawn) [2-(2'-Chlorophenyl)-3-(2-methylpentanoyloxy)indone], the “Mite Adult rating” value is reported as 5 (100% mortality). For `CCC(CC)C(=O)OC1=C(c2cc(C)ccc2C)C(=O)c2ccccc21` [2-(2',5'-Dimethylphenyl)-3-(2-ethylbutanoyloxy)indone], the “Mite Adult rating” value was 3 (an approximately 50% mortality). For `Cc1cc(C)c(C2=C(OC(=O)c3c(Cl)cccc3Cl)c3ccccc3C2=O)c(C)c1` [3-(2,6-Dichlorobenzoyloxy)-2-(2',4',6'-trimethylphenyl)indone], the “Mite Adult rating” value was 1. For `CCCC(C)C(=O)OC1=C(c2ccc(C)cc2C)C(=O)c2ccccc21` (stereo not drawn) [2-(2',4'-Dimethylphenyl)-3-(2-methylpentanoyloxy)indone], the “Mite Adult rating” value was 3 (an approximately 50% mortality). `Cc1cc(C)c(C2=C(OC(=O)c3cccs3)c3ccccc3C2=O)c(C)c1` [2-(2',4',6'-Trimethylphenyl)-3-(2-thenoyloxy)indone] was tested, and the “Mite Adult rating” value was 5 (100% mortality). `O=C(OC1=C(c2c(Cl)cccc2Cl)C(=O)c2ccccc21)c1cccc([N+](=O)[O-])c1` [3-(3-Nitrobenzoyloxy)-2-(2',6'-dichlorophenyl)indone] was tested, and the “Mite Adult rating” value was 5 (100% mortality).

The compounds below were run on egg of the two-spotted mite (assay: Mite Ovicide Test). Conditions: spray on eggs, 4 days.
Assay type: in vivo, Tetranychus urticae (Koch)
Set-up: key to Mite Ova rating: 1: no mortality; 3: an approximately 50% mortality; 5: 100% mortality
Source text: as §1
The plants were allowed to dry thoroughly.
as §2
`Cc1cc(C)c(C2=C(OC(=O)N(C)C3CCCCC3)c3ccccc3C2=O)c(C)c1` [2-(2',4',6'-Trimethylphenyl)-3-(N-cyclohexyl-N-methylcarbamoyloxy)indone] was tested, and the “Mite Ova rating” value was 5 (100% mortality). With `Cc1cc(C(C)(C)C)cc(C)c1C1=C(OC(=O)C(C)(C)C)c2ccccc2C1=O` [2-(2',6'-Dimethyl-4'-t-butylphenyl)-3-(pivaloyloxy)indone] the “Mite Ova rating” value was 1. In the case of `CCCCC(CC)C(=O)OC1=C(c2ccccc2F)C(=O)c2ccccc21` (stereo not drawn) [3-(2-Ethylhexanoyloxy)-2-(2'-fluorophenyl)indone], the “Mite Ova rating” value is reported as 5 (100% mortality). For `Cc1cc(C)c(C2=C(OC(=O)OC3=C(c4c(C)cc(C)cc4C)C(=O)c4ccccc43)c3ccccc3C2=O)c(C)c1` [Bis[2-(2',4',6'-Trimethylphenyl)Indon-3-yl]Carbonate], the “Mite Ova rating” value was 5 (100% mortality). `O=C1C(c2c(Cl)cccc2Cl)=C(OC(=O)c2c(Cl)ccc(Cl)c2Cl)c2ccccc21` [3-(2,3,6-Trichlorobenzoyloxy)-2-(2',6'-dichlorophenyl)indone] was tested, and the “Mite Ova rating” value was 5 (100% mortality). `COc1cccc(OC)c1C(=O)OC1=C(c2c(C)cc(C)cc2C)C(=O)c2ccccc21` [3-(2,6-Dimethoxybenzoyloxy)-2-(2',4',6'-trimethylphenyl)indone] was tested, and the “Mite Ova rating” value was 1. In the case of `CCc1cccc(C)c1C1=C(OC(=O)C(C)(C)C)c2ccccc2C1=O` [2-(2'-Ethyl-6'-methylphenyl)-3-(pivaloyloxy)indone], the “Mite Ova rating” value is reported as 5 (100% mortality). For `CCCCCCCCCCCCCCCC(=O)OC1=C(c2ccc(C(C)C)cc2)C(=O)c2ccccc21` [2-(4'-isopropylphenyl)-3-(palmitoyloxy)indone], the “Mite Ova rating” value was 1. “2-(2'-Methoxyphenyl)-3-(neodecanoyloxy)indone” was tested, and the “Mite Ova rating” value was 1. In the case of `O=C(OC1=C(c2c(Cl)cccc2Cl)C(=O)c2ccccc21)c1ccccc1` [3-(Benzoyloxy)-2-(2',6'-dichlorophenyl)indone], the “Mite Ova rating” value is reported as 5 (100% mortality). `CCCCC(CC)C(=O)OC1=C(c2ccccc2)C(=O)c2ccccc21` (stereo not drawn) [3-(2-Ethylhexanoyloxy)-2-phenylindone] was tested, and the “Mite Ova rating” value was 1. With `Cc1cc(C)c(C2=C(OC(=O)Cc3ccccc3)c3ccccc3C2=O)c(C)c1` [2-(2',4',6'-Trimethylphenyl)-3-(phenylacetoxy)indone] the “Mite Ova rating” value was 5 (100% mortality). In the case of `CNC(=O)N(C)C(=O)OC1=C(c2c(C)cc(C)cc2C)C(=O)c2ccccc21` [2-(2',4',6'-Trimethylphenyl)-3-(2,4-dimethylallophanoyloxy)indone], the “Mite Ova rating” value is reported as 5 (100% mortality). In the case of `O=C(OC1=C(c2c(Cl)cccc2Cl)C(=O)c2ccccc21)c1ccc(Cl)cc1Cl` [3-(2,4-Dichlorobenzoyloxy)-2-(2',6'-dichlorophenyl)indone], the “Mite Ova rating” value is reported as 5 (100% mortality). With `CCCC(C)C(=O)OC1=C(c2ccccc2Cl)C(=O)c2ccccc21` (stereo not drawn) [2-(2'-Chlorophenyl)-3-(2-methylpentanoyloxy)indone] the “Mite Ova rating” value was 5 (100% mortality). For `CCC(CC)C(=O)OC1=C(c2cc(C)ccc2C)C(=O)c2ccccc21` [2-(2',5'-Dimethylphenyl)-3-(2-ethylbutanoyloxy)indone], the “Mite Ova rating” value was 5 (100% mortality). `Cc1cc(C)c(C2=C(OC(=O)c3c(Cl)cccc3Cl)c3ccccc3C2=O)c(C)c1` [3-(2,6-Dichlorobenzoyloxy)-2-(2',4',6'-trimethylphenyl)indone] was tested, and the “Mite Ova rating” value was 1. In the case of `CCCC(C)C(=O)OC1=C(c2ccc(C)cc2C)C(=O)c2ccccc21` (stereo not drawn) [2-(2',4'-Dimethylphenyl)-3-(2-methylpentanoyloxy)indone], the “Mite Ova rating” value is reported as 5 (100% mortality). For `Cc1cc(C)c(C2=C(OC(=O)c3cccs3)c3ccccc3C2=O)c(C)c1` [2-(2',4',6'-Trimethylphenyl)-3-(2-thenoyloxy)indone], the “Mite Ova rating” value was 5 (100% mortality). With `O=C(OC1=C(c2c(Cl)cccc2Cl)C(=O)c2ccccc21)c1cccc([N+](=O)[O-])c1` [3-(3-Nitrobenzoyloxy)-2-(2',6'-dichlorophenyl)indone] the “Mite Ova rating” value was 5 (100% mortality).
